{"source": "patent US6037351A", "about": "“Method of inhibiting hepatitis B virus” (priority 1996, dated 2000)", "key": {"[1]": {"experiment": "Viability of 2.2.15 cells (propidium iodide FACS, 35S methionine incorporation)", "assay_type": "cell-based", "conditions": "human, 1000 μg/ml, six days, read-out: cells as viable as untreated controls", "protocol": "Cell viability was measured by flow cytometry using a FACscan cytometer, Becton Dickinson, Sunnyvale, Calif., USA, after incubation with propidium iodide, as in Platt and Jacob, Eur. J. Biochem. 208, 187-193 (1992).\nThe decrease was not due to toxicity of NBDNJ, since 90% of the cells maintained in 1000 μgs/ml NBDNJ for six days were as viable as untreated controls, as determined by FACs analysis of propidium iodide stained cells and ^[35] -S methionine incorporation into proteins."}, "HBs proteins": {"system": "HBs proteins", "experiment": "ELISA of HBs proteins in virion fraction of medium (sucrose gradient)", "assay_type": "cell-based, HBV", "conditions": "40-46% sucrose fraction", "protocol": "(§1) FIG. 3D: Histogram of the area under the averaged peaks of the densitometric tracing of the gel in FIG. 3B. […] Equal volumes of the indicated samples were tested for HBV envelope antigens using the enzyme-linked imminosorbent assay (ELISA) method. Samples of unfractionated medium (FIGS. 4A, 4B and 4C) or partially purified virus (FIGS. 4D, 4E and 4F) from 3-day cultures were tested for HBV SHBs (\"S) (FIGS. 4A and 4D), LHBs: \"PreS1\" (FIGS. 4B and 4E) or MHBs \"PreS2\" (FIGS. 4C and 4F) epitopes. Cultures were maintained in the indicated concentrations of NBDNJ, expressed in millimolar units and shown along the X axis.\n(§2) Detection of HBV proteins by the Enzyme Linked Immunoabsorbant assay (ELISA).\nMonoclonal antibodies used herein are well-known and are described by Heerman et al., J. Virol. 52, 396-402 (1984), for antibody to PreS1 (MA 18/7); Heerman et al., Intervirology 28: 14-21 (1987), for antibody to PreS2 (Q 19/10), see also Gerlich and Bruss, Molecular Biology of Hepatitis B Virus, ed. […]\nBound antigen was detected by incubation with peroxidase conjugated goat anti-HBs antibody (Behring) followed by development in orthophenylenediamine (0.33 mg/ml PBS-peroxide solution). Optical densities were read in a Behring plate reader. Tests on purified virus and total medium were conducted over a series of sample dilutions to insure proper quantification. […]"}, "SHBs (S) antigen": {"system": "SHBs (S) antigen", "experiment": "ELISA of SHBs (S) antigen in unfractionated culture medium of 2.2.15 cells", "assay_type": "cell-based, HBV", "protocol": "as §1, §2\nMonoclonal antibodies used herein are well-known and are described by Heerman et al., J. Virol. […]\nBound antigen was detected by incubation with peroxidase conjugated goat anti-HBs antibody (Behring) followed by development in orthophenylenediamine (0.33 mg/ml PBS-peroxide solution). Optical densities were read in a Behring plate reader. Tests on purified virus and total medium were conducted over a series of sample dilutions to insure proper quantification.\nTo distinguish between these possibilities, the amount and nature of envelope antigens in the culture medium was determined by both ELISA and Western analysis. […]"}, "LHBs (PreS1)": {"system": "LHBs (PreS1)", "experiment": "Western blot of LHBs in sucrose gradient virion fraction", "assay_type": "cell-based, HBV", "conditions": "Western blot densitometry, FIG. 5C vs 5B lane 2", "protocol": "(§3) Polyethylene glycol (PEG) precipitates of culture medium (FIG. 5A) or partly purified virions, HBs filaments and spheres from untreated (FIG. 5B) and NBDNJ treated (FIG. 5C) cultures were resolved by SDS-PAGE (13.5% acrylamide), transferred to immobilin paper and incubated with PreS1 and PreS2 specific monoclonal antibody.\n(§4) Samples were dissolved in loading buffer, resolved by electrophoresis through 13.5% SDS polyacrylamide gels (SDS-PAGE) and transferred to PVDF (Millipore) membranes and blocked with 5% powdered milk, as in Gultekin and Heerman, Analytical Biochem. 172, 320-329 (1989). After incubation with primary antibody overnight at room temperature in 1% bovine serum albumin (BSA) in TNE and second antibody (peroxidase conjugated goat anti-mouse IgG serum) for 1 hour in TNE at room temperature, membranes were developed in peroxide-diaminobenzidine (Sigma) PBS, as described in the manufacturer's instructions.\n(§5) The ELISA results were confirmed by Western blot analysis of fractions from the sucrose gradient containing either intact virus, filaments or spheres (FIGS. 5B, from untreated cultures, and 5C, from NBDNJ treated cultures). […]\n(§6) Fractions distal to the virion containing fractions (near the bottom of the gradient) were resolved in lane 1 to show specificity of the antibody. […] The images shown in FIGS. 5B and 5C) were quantified by densitometry."}, "[2]": {"system": "Human Immunodeficiency Virus (HIV)", "conditions": "cited from earlier work"}, "MHBs (PreS2)": {"system": "MHBs (PreS2)", "experiment": "Western blot of MHBs in sucrose gradient fractions", "assay_type": "cell-based, HBV", "protocol": "as §3, §4, §5, §6"}}, "data": [{"compound": "CCCCN1C[C@H](O)[C@@H](O)[C@H](O)[C@H]1CO", "note": "[NBDNJ, N-butyl-1,5-dideoxy-1,5-imino-D-glucitol]", "values": [{"measurement": "viability at 144 h", "setting": "[1]", "value": 90, "unit": "%"}, {"measurement": "HBs proteins in virion samples from medium", "setting": "HBs proteins; NBDNJ 2.25 mM (approximately 500 μg/ml)", "value": "virtually no detectable HBs proteins"}, {"measurement": "HBs proteins in virion samples from medium", "setting": "HBs proteins; NBDNJ 4.5 mM (approximately 1000 μg/ml)", "value": "virtually no detectable HBs proteins"}, {"measurement": "effect upon total amount of SHBs (S) antigen in medium", "setting": "SHBs (S) antigen", "value": "no significant effect"}, {"measurement": "decrease of LHBs in virion samples compared to untreated", "setting": "LHBs (PreS1)", "value": "approximately 4 fold"}, {"measurement": "formation of cytotoxic HIV in vitro (in words)", "setting": "[2]", "value": "suppress formation of cytotoxic Human Immunodeficiency Virus (HIV) in vitro"}, {"measurement": "decrease of MHBs in virion samples compared to untreated", "setting": "MHBs (PreS2); Western blot densitometry, FIG. 5C lane 2 vs FIG. 5B lane 2", "value": 12, "unit": "fold"}, {"measurement": "decrease in MHBs (PreS2 epitope) (in words)", "setting": "MHBs (PreS2); medium of NBDNJ treated cultures, FIGS. 5B and 5C", "value": "particularly severe"}]}]}
